In patent publication US8034811B2, “Hydroxamic acid esters and pharmaceutical use thereof” (Leo Pharma A/S, priority 2003, dated 2011):

Biological target: T1, human intracellular domain of KDR (VEGF Receptor-2) (Homo sapiens, UniProt P35968)
T1 construct: A fusion protein containing the intracellular domain (amino acids 793 to 1357) of the KDR and N-terminally tagged to GST; made in house; host or cells: Sf9 insect cells (baculovirus, pDEST20) for GST-KDR-cyt; E. coli BL21 (pGEX-4T-1) for GST-PLCγ
T1 sequence (P35968 794-1356 limits assumed): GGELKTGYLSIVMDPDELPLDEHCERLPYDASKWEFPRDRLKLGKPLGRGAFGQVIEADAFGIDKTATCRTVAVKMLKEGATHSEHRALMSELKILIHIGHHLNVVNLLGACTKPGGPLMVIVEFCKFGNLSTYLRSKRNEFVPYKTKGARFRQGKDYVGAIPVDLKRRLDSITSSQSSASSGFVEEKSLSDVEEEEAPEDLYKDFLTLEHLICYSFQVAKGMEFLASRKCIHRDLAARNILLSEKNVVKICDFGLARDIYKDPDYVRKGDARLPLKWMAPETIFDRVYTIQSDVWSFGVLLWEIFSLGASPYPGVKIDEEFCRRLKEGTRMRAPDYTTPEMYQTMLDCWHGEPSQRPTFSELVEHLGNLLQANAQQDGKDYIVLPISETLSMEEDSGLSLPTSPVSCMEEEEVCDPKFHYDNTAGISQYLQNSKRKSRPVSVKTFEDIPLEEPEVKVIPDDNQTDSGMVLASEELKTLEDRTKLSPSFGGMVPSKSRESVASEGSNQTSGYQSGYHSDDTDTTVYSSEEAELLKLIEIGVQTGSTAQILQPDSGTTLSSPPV
Experiment: In vitro KDR kinase assay
Format: biochemical
Conditions: IC50 as molar concentration; GST-KDR-cyt, substrate phospholipase Cγ, ATP 100 μM, 30 min room temperature, time-resolved fluorometry
Procedure: The intracellular domain of the KDR receptor was used in the in vitro KDR assay. This domain contains the tyrosine kinase domain of KDR, and when expressed in Sf9 cells, this domain is constitutively active i.e. the kinase domain is phosphorylated on tyrosine residues.
The compounds to be tested were dissolved in DMSO at 10 mM, stored at −20° C. and protected from light. The maximum concentration of DMSO in the in vitro assay was 0.1%. Control samples received the same concentration of solvent as the samples treated with the test compounds.
For the kinase assays, black 96 wells MaxiSorp microtiter plates were coated by an overnight incubation with 100 μl/well of a 2.5 μg/ml solution of phospholipase Cγ in TBS buffer (40 mM Tris-HCl, pH 7.4, 20 mM Mg(C2H3O2)2, 0.02% NaN3) at 4° C. The plates were washed 3 times with TBS buffer containing 0.1% Tween-20, and the residual binding sites were masked by incubation with 1% BSA in TBS buffer containing 0.1% Tween-20 for 1 h. The plates were washed again and the test compounds were added at final concentrations up to 10 μM, together with ATP at the final concentration of 100 μM in 50 μl TBS buffer/well. Then, 50 μl of the human intracellular domain of KDR (VEGF Receptor-2) finally diluted 3000-3500 fold were added and were incubated for 30 min at room temperature. The plates were washed and 100 μl of the Europium labelled PY-20 anti-phosphotyrosine antibody (Wallac, FIN) were incubated in each well at the concentration of approximately 114 ng/ml for 2 h. Then, the plates were washed and 100 μl of enhancer solution (Wallac, FIN) were incubated in each well for 5 min in the dark. The plates were read in a Victor 1420 multilabel counter, using a Europium protocol for time-resolved fluorometry (Wallac, FIN): excitation 340 nm, emission 615 nm, sample pulse cycle 400 μs. Fluorescence was measured for 400 μs between flashes after a delay time of 400 μs. The background measured in the absence of enzyme was subtracted from all samples. The molar concentrations that inhibited 50% of the maximal enzymatic activity (IC50) were calculated from the dose-response curve, by fitting a straight line between the two concentrations immediately above and below the 50% inhibition point (i.e. by solving the equation y=a+bx).

For Cc1ccc(CONC(=O)c2ccccc2NCc2ccncc2)cc1F [Compound 41, N-(3-Fluoro-4-methyl-benzyloxy)-2-[(pyridin-4-ylmethyl)-amino]-benzamide], the IC50 was 20 nM.
Cc1ccc(F)cc1CONC(=O)c1ccccc1NCc1ccncc1 [Compound 42, N-(5-Fluoro-2-methyl-benzyloxy)-2-[(pyridin-4-ylmethyl)-amino]-benzamide] gave an IC50 of 10 nM.
For COc1c(F)c(F)c(CONC(=O)c2ccccc2NCc2ccncc2)c(F)c1F [Compound 43, 2-[(Pyridin-4-ylmethyl)-amino]-N-(2,3,5,6-tetrafluoro-4-methoxy-benzyloxy)benzamide], the IC50 was 20 nM.
For O=C(NOCc1ccc(Br)cc1)c1ccccc1NCc1ccncc1 [Compound 44, N-(4-Bromo-benzyloxy)-2-[(pyridin-4-ylmethyl)-amino]-benzamide], the IC50 was 50.1 nM.
O=C(NOCc1ccccc1I)c1ccccc1NCc1ccncc1 [Compound 45, N-(2-Iodo-benzyloxy)-2-[(pyridin-4-ylmethyl)-amino]-benzamide] was tested, and the IC50 was 31.6 nM.
For O=C(NOCc1cccc(I)c1)c1ccccc1NCc1ccncc1 [Compound 46, N-(3-Iodo-benzyloxy)-2-[(pyridin-4-ylmethyl)-amino]-benzamide], the IC50 was 63.1 nM.
Cc1ccc(CONC(=O)c2ccccc2NCc2ccncc2)cc1 [Compound 47, N-(4-Methyl-benzyloxy)-2-[(pyridin-4-ylmethyl)-amino]-benzamide] was tested, and the IC50 was 15.8 nM.
Compound O=C(NOCc1cccc(C#CCO)c1)c1ccccc1NCc1ccncc1 [Compound 50, N-[3-(3-Hydroxy-prop-1-ynyl)-benzyloxy]-2-[(pyridin-4-ylmethyl)-amino]-benzamide] has an IC50 of 63.1 nM.
O=C(NOCc1ccccc1C#CCO)c1ccccc1NCc1ccncc1 [Compound 52, N-[2-(3-Hydroxy-prop-1-ynyl)-benzyloxy]-2-[(pyridin-4-ylmethyl)-amino]-benzamide] gave an IC50 of 63.1 nM.
For N#CCc1ccccc1CONC(=O)c1ccccc1NCc1ccncc1 [Compound 56, N-(2-Cyanomethyl-benzyloxy)-2-[(pyridin-4-ylmethyl)-amino]-benzamide], the IC50 was 50.1 nM.
Work on O=C(NOCc1ccc(CO)cc1)c1ccccc1NCc1ccncc1 [Compound 58, N-(4-Hydroxymethyl-benzyloxy)-2-[(pyridin-4-ylmethyl)-amino]-benzamide] yielded an IC50 of 63.1 nM.
O=C(NOCc1ccc(F)cc1C(F)(F)F)c1ccccc1NCc1ccncc1 [Compound 59, N-(4-Fluoro-2-trifluoromethyl-benzyloxy)-2-[(pyridin-4-ylmethyl)-amino]-benzamide] gave an IC50 of 31.6 nM.
Work on O=C(NOCc1c(F)cccc1C(F)(F)F)c1ccccc1NCc1ccncc1 [Compound 60, N-(2-Fluoro-6-trifluoromethyl-benzyloxy)-2-[(pyridin-4-ylmethyl)-amino]-benzamide] yielded an IC50 of 20 nM.
O=C(NOCc1ccc(F)c(C(F)(F)F)c1)c1ccccc1NCc1ccncc1 [Compound 61, N-(4-Fluoro-3-trifluoromethyl-benzyloxy)-2-[(pyridin-4-ylmethyl)-amino]-benzamide] was tested, and the IC50 was 15.8 nM.
Work on Cc1ccc(CONC(=O)c2ccccc2NCc2ccncc2)cc1C(F)(F)F [Compound 62, N-(4-Methyl-3-trifluoromethyl-benzyloxy)-2-[(pyridin-4-ylmethyl)-amino]-benzamide] yielded an IC50 of 63.1 nM.
COc1ccc(CONC(=O)c2ccccc2NCc2ccncc2)cc1C(F)(F)F [Compound 63, N-(4-Methoxy-3-trifluoromethyl-benzyloxy)-2-[(pyridin-4-ylmethyl)-amino]-benzamide] showed an IC50 of 63.1 nM.
Compound COc1ccccc1CONC(=O)c1ccccc1NCc1ccncc1 [Compound 64, N-(2-Methoxy-benzyloxy)-2-[(pyridin-4-ylmethyl)-amino]-benzamide] has an IC50 of 50.1 nM.
O=C(NOCc1ccccc1OC(F)(F)F)c1ccccc1NCc1ccncc1 [Compound 66, 2-[(Pyridin-4-ylmethyl)-amino]-N-(2-trifluoromethoxy-benzyloxy)-benzamide] was tested, and the IC50 was 63.1 nM.
O=C(NOCc1cccc(OC(F)(F)F)c1)c1ccccc1NCc1ccncc1 [Compound 67, 2-[(Pyridin-4-ylmethyl)-amino]-N-(3-trifluoromethoxy-benzyloxy)-benzamide] gave an IC50 of 50.1 nM.
O=C(NOCc1ccc(OC(F)(F)F)cc1)c1ccccc1NCc1ccncc1 [Compound 68, 2-[(Pyridin-4-ylmethyl)-amino]-N-(4-trifluoromethoxy-benzyloxy)-benzamide] gave an IC50 of 79.4 nM.
Work on O=C(NOCc1ccccc1OC(F)F)c1ccccc1NCc1ccncc1 [Compound 69, N-(2-Difluoromethoxy-benzyloxy)-2-[(pyridin-4-ylmethyl)-amino]-benzamide] yielded an IC50 of 6.31 nM.
O=C(NOCc1ccccc1SC(F)(F)F)c1ccccc1NCc1ccncc1 [Compound 70, 2-[(Pyridin-4-ylmethyl)-amino]-N-(2-trifluoromethylsulfanyl-benzyloxy)-benzamide] gave an IC50 of 31.6 nM.
Compound O=C(NOCc1cc2c(cc1Cl)OCO2)c1ccccc1NCc1ccncc1 [Compound 71, N-(6-Chloro-benzo[1,3]dioxol-5-ylmethoxy)-2-[(pyridin-4-ylmethyl)amino]-benzamide] has an IC50 of 25.1 nM.
For O=C(NOCc1ccc2c(c1)OCO2)c1ccccc1NCc1ccncc1 [Compound 72, N-(Benzo[1,3]-dioxol-5-ylmethoxy)-2-[(pyridin-4-ylmethyl)-amino]-benzamide], the IC50 was 39.8 nM.
O=C(NOCc1ccc2c(c1)CCC2)c1ccccc1NCc1ccncc1 [Compound 73, N-(Indan-5-ylmethoxy)-2-[(pyridin-4-ylmethyl)-amino]-benzamide] showed an IC50 of 15.8 nM.
In the case of N#Cc1cccc(CONC(=O)c2ccccc2NCc2ccncc2)c1 [Compound 74, N-(3-Cyano-benzyloxy)-2-[(pyridin-4-ylmethyl)-amino]-benzamide], the IC50 is reported as 63.1 nM.
N#Cc1ccccc1CONC(=O)c1ccccc1NCc1ccncc1 [Compound 75, N-(2-Cyano-benzyloxy)-2-[(pyridin-4-ylmethyl)-amino]-benzamide] was tested, and the IC50 was 63.1 nM.
N#Cc1ccc(CONC(=O)c2ccccc2NCc2ccncc2)c(F)c1 [Compound 76, N-(4-Cyano-2-fluoro-benzyloxy)-2-[(pyridin-4-ylmethyl)-amino]-benzamide] showed an IC50 of 25.1 nM.
With N#Cc1ccc(CONC(=O)c2ccccc2NCc2ccncc2)cc1Br [Compound 77, N-(3-Bromo-4-cyano-benzyloxy)-2-[(pyridin-4-ylmethyl)-amino]-benzamide] the IC50 was 39.8 nM.
N#Cc1ccc(CONC(=O)c2ccccc2NCc2ccncc2)c(Cl)c1 [Compound 78, N-(2-Chloro-4-cyano-benzyloxy)-2-[(pyridin-4-ylmethyl)-amino]-benzamide] was tested, and the IC50 was 15.8 nM.
For COc1cc(C#N)ccc1CONC(=O)c1ccccc1NCc1ccncc1 [Compound 79, N-(4-Cyano-2-methoxy-benzyloxy)-2-[(pyridin-4-ylmethyl)-amino]-benzamide], the IC50 was 39.8 nM.
N#Cc1ccc(CONC(=O)c2ccccc2NCc2ccncc2)c(I)c1 [Compound 80, N-(4-Cyano-2-iodo-benzyloxy)-2-[(pyridin-4-ylmethyl)-amino]-benzamide] showed an IC50 of 39.8 nM.
Work on N#Cc1ccc(Br)c(CONC(=O)c2ccccc2NCc2ccncc2)c1 [Compound 81, N-(2-Bromo-5-cyano-benzyloxy)-2-[(pyridin-4-ylmethyl)-amino]-benzamide] yielded an IC50 of 50.1 nM.
N#Cc1ccc(CONC(=O)c2ccccc2NCc2ccncc2)c2ccccc12 [Compound 82, N-(4-Cyano-naphthalen-1-ylmethoxy)-2-[(pyridin-4-ylmethyl)-amino]-benzamide] was tested, and the IC50 was 15.8 nM.
Work on Nc1ccccc1CONC(=O)c1ccccc1NCc1ccncc1 [Compound 85, N-(2-Amino-benzyloxy)-2-[(pyridin-4-ylmethyl)-amino]-benzamide] yielded an IC50 of 50.1 nM.
Compound COC(=O)c1cccc(CONC(=O)c2ccccc2NCc2ccncc2)c1 [Compound 87, 3-{2-[(Pyridin-4-ylmethyl)-amino]-benzoylaminooxymethyl}-benzoic acid methyl ester] has an IC50 of 100 nM.
CN(C)CCNC(=O)c1cccc(CONC(=O)c2ccccc2NCc2ccncc2)c1 [Compound 96, N-[3-(2-dimethylaminoethylcarbamoyl)-benzyloxy]-2-[(pyridin-4-ylmethyl)-amino]-benzamide] showed an IC50 of 79.4 nM.
O=C(NOCc1ccccc1-c1cccs1)c1ccccc1NCc1ccncc1 [Compound 98, 2-[(Pyridin-4-ylmethyl)-amino]-N-(2-thiophen-2-yl-benzyloxy)-benzamide] showed an IC50 of 39.8 nM.
